Laboratory results reported in US8242159B2, “1,3-dihydro-5-isobenzofurancarbonitrile derivatives and pharmaceutical composition thereof for the treatment of premature ejaculation” (Dong-A Pharmaceutical. Co., Ltd, priority 2007, dated 2012).

System: Male Wistar rats
Experiment: p-PCA-induced ejaculation in anesthetized rats (ejaculation-delaying effect)
Assay type: in vivo, rat
Conditions: for Ratio: Number of responding animals/total animal number: 50 mg/kg oral in 1% HPMC, p-PCA 5 mg/kg i.p. 80 min later, observed 30 min; for Latency: Time to display the ejaculatory response: 50 mg/kg oral, p-PCA 5 mg/kg i.p., mean ± standard deviation of responding rats
Description: The compounds prepared in the above examples were evaluated to determine whether they have an effect of delaying ejaculation. The evaluation was carried out using an animal model according to a method described in Yonezawa et al., Life Sci. 2000, 67(25) p 3031-9. Male Wistar rats weighing 240-260 g were used. Each compound was suspended in 1% HPMC, and then administered orally to each animal. After 60 min, the animals were anesthetized and fixed. 20 min later, para-chloroamphetamine (p-PCA) was intraperitoneally administered in a dose of 5 mg/kg in order to induce ejaculation. […] An ejaculatory response was considered to be elicited when rhythmic contraction of bulbocavernosus muscles and semen discharge occurs. Six or more animals were used for each compound. A Fisher's […] test was performed for the comparison of the proportion of responding rats (ejaculated rats) to determine significance of difference between a treatment group and a vehicle control. The time to reach ejaculation was expressed as mean±standard deviation.
Each test compound was administered at a dose of 50 mg/kg. Ejaculation was elicited in all seven animals of a control group.

SMILES | Ratio: Number of responding animals/total animal number | Latency: Time to display the ejaculatory response [s]
Cl.N#Cc1ccc2c(c1)COC2(CCCn1ccnc1)c1ccc(F)cc1 (stereo not drawn) [Ex. 54, 1-(4-fluorophenyl)-1-{3-(imidazole-1-yl)propyl}-1,3-dihydro-5-isobenzofurancarbonitrile hydrochloride] | 5/9 | 1247 ± 352
N#Cc1ccc2c(c1)COC2(CCn1cccn1)c1ccc(F)cc1 (stereo not drawn) [Ex. 59, 1-(4-fluorophenyl)-1-{2-(pyrazole-1-yl)ethyl}-1,3-dihydro-5-isobenzofurancarbonitrile] | 3/7 | 954 ± 287
Cc1ccc(C2(CCN(C)C)OCc3cc(C#N)ccc32)cc1.Cl (stereo not drawn) [Ex. 25, 1-{2-(dimethylamino)ethyl}-1-(4-tolyl)-1,3-dihydro-5-isobenzofurancarbonitrile hydrochloride] | 4/9 | 841 ± 254
Cl.N#Cc1ccc2c(c1)COC2(CCn1ccnc1)c1ccc(F)cc1 (stereo not drawn) [Ex. 56, 1-(4-fluorophenyl)-1-{2-(imidazole-1-yl)ethyl}-1,3-dihydro-5-isobenzofurancarbonitrile hydrochloride] | 2/6 | 606 ± 130
Cl.N#Cc1ccc2c(c1)COC2(CCCn1cccn1)c1ccc(F)cc1 (stereo not drawn) [Ex. 58, 1-(4-fluorophenyl)-1-{3-(pyrazole-1-yl)propyl}-1,3-dihydro-5-isobenzofurancarbonitrile hydrochloride] | 4/9 | 850 ± 362
COc1ccc(C2(CCn3ccnc3)OCc3cc(C#N)ccc32)cc1.Cl (stereo not drawn) [Ex. 7, 1-{2-(imidazole-1-yl)ethyl}-1-(4-methoxyphenyl)-1,3-dihydro-5-isobenzofurancarbonitrile hydrochloride] | 5/9 | 963 ± 304
Cl.N#Cc1ccc2c(c1)COC2(CCCn1ccnc1)c1ccccc1 (stereo not drawn) [Ex. 17, 1-{3-(imidazole-1-yl)propyl}-1-phenyl-1,3-dihydro-5-isobenzofurancarbonitrile hydrochloride] | 3/6 | 949 ± 330
CN(C)c1ccc(C2(CCCn3ccnc3)OCc3cc(C#N)ccc32)cc1 (stereo not drawn) [Ex. 37, 1-(4-dimethylaminophenyl)-1-{3-(imidazole-1-yl)propyl}-1,3-dihydro-5-isobenzofurancarbonitrile] | 4/7 | 950 ± 241
CN(C)CCCC1(c2cccs2)OCc2cc(C#N)ccc21.Cl (stereo not drawn) [Ex. 41, 1-{3-(dimethylamino)propyl}-1-(2-thienyl)-1,3-dihydro-5-isobenzofurancarbonitrile hydrochloride] | 1/7 | 702
N#Cc1ccc2c(c1)COC2(CCn1cccn1)c1ccc(Cl)cc1 (stereo not drawn) [Ex. 67, 1-(4-chlorophenyl)-1-{2-(pyrazole-1-yl)ethyl}-1,3-dihydro-5-isobenzofurancarbonitrile] | 3/7 | 853 ± 352
Cl.N#Cc1ccc2c(c1)COC2(CCn1cccn1)c1ccc(F)cc1 (stereo not drawn) [Ex. 60, 1-(4-fluorophenyl)-1-{2-(pyrazole-1-yl)ethyl}-1,3-dihydro-5-isobenzofurancarbonitrile hydrochloride] | 4/9 | 1010 ± 400
CN(C)CCCC1(c2ccccc2)OCc2cc(C#N)ccc21.Cl (stereo not drawn) [Ex. 13, 1-{3-(dimethylamino)propyl}-1-phenyl-1,3-dihydro-5-isobenzofurancarbonitrile hydrochloride] | 1/6 | 327
N#Cc1ccc2c(c1)COC2(CCCn1cccn1)c1ccc(F)cc1 (stereo not drawn) [Ex. 57, 1-(4-fluorophenyl)-1-{3-(pyrazole-1-yl)propyl}-1,3-dihydro-5-isobenzofurancarbonitrile] | 4/9 | 951 ± 342
Cc1ccc(C2(CCCn3cccn3)OCc3cc(C#N)ccc32)cc1.Cl (stereo not drawn) [Ex. 31, 1-{3-(pyrazole-1-yl)propyl}-1-(4-tolyl)-1,3-dihydro-5-isobenzofurancarbonitrile hydrochloride] | 3/9 | 754 ± 401
CN(C)c1ccc(C2(CCCn3ccnc3)OCc3cc(C#N)ccc32)cc1.Cl (stereo not drawn) [Ex. 38, 1-(4-dimethylaminophenyl)-1-{3-(imidazole-1-yl)propyl}-1,3-dihydro-5-isobenzofurancarbonitrile hydrochloride] | 4/7 | 764 ± 304
Cl.N#Cc1ccc2c(c1)COC2(CCn1ccnc1)c1cccs1 (stereo not drawn) [Ex. 48, 1-{2-(imidazole-1-yl)ethyl}-1-(2-thienyl)-1,3-dihydro-5-isobenzofurancarbonitrile hydrochloride] | 3/7 | 904 ± 321
CN(C)CCC1(c2cccs2)OCc2cc(C#N)ccc21.Cl (stereo not drawn) [Ex. 43, 1-{2-(dimethylamino)ethyl}-1-(2-thienyl)-1,3-dihydro-5-isobenzofurancarbonitrile hydrochloride] | 3/7 | 888 ± 275
N#Cc1ccc2c(c1)COC2(CCn1cccn1)c1cccs1 (stereo not drawn) [Ex. 51, 1-{2-(pyrazole-1-yl)ethyl}-1-(2-thienyl)-1,3-dihydro-5-isobenzofurancarbonitrile] | 4/7 | 1042 ± 451
Cc1ccc(C2(CCN(C)C)OCc3cc(C#N)ccc32)cc1 (stereo not drawn) [Ex. 24, 1-{2-(dimethylamino)ethyl}-1-(4-tolyl)-1,3-dihydro-5-isobenzofurancarbonitrile] | 3/7 | 1021 ± 367
COc1ccc(C2(CCCN(C)C)OCc3cc(C#N)ccc32)cc1.Cl (stereo not drawn) [Ex. 3, 1-{3-(dimethylamino)propyl}-1-(4-methoxyphenyl)-1,3-dihydro-5-isobenzofurancarbonitrile hydrochloride] | 1/6 | 1234
Cl.N#Cc1ccc2c(c1)COC2(CCCn1ccnc1)c1ccc(Cl)cc1 (stereo not drawn) [Ex. 62, 1-(4-chlorophenyl)-1-{3-(imidazole-1-yl)propyl}-1,3-dihydro-5-isobenzofurancarbonitrile hydrochloride] | 4/7 | 888 ± 284
N#Cc1ccc2c(c1)COC2(CCn1ccnc1)c1ccc(F)cc1 (stereo not drawn) [Ex. 55, 1-(4-fluorophenyl)-1-{2-(imidazole-1-yl)ethyl}-1,3-dihydro-5-isobenzofurancarbonitrile] | 4/7 | 1450 ± 671
Cc1ccc(C2(CCCn3cccn3)OCc3cc(C#N)ccc32)cc1 (stereo not drawn) [Ex. 30, 1-{3-(pyrazole-1-yl)propyl}-1-(4-tolyl)-1,3-dihydro-5-isobenzofurancarbonitrile] | 3/7 | 876 ± 300
CN(C)CCC1(c2ccccc2)OCc2cc(C#N)ccc21 (stereo not drawn) [Ex. 14, 1-{2-(dimethylamino)ethyl}-1-phenyl-1,3-dihydro-5-isobenzofurancarbonitrile] | 3/7 | 1032 ± 451
Cc1ccc(C2(CCn3cccn3)OCc3cc(C#N)ccc32)cc1 (stereo not drawn) [Ex. 32, 1-{2-(pyrazole-1-yl)ethyl}-1-(4-tolyl)-1,3-dihydro-5-isobenzofurancarbonitrile] | 4/9 | 1000 ± 401
Cc1ccc(C2(CCn3cccn3)OCc3cc(C#N)ccc32)cc1.Cl (stereo not drawn) [Ex. 33, 1-{2-(pyrazole-1-yl)ethyl}-1-(4-tolyl)-1,3-dihydro-5-isobenzofurancarbonitrile hydrochloride] | 3/7 | 698 ± 374
CN(C)CCC1(c2ccccc2)OCc2cc(C#N)ccc21.Cl (stereo not drawn) [Ex. 15, 1-{2-(dimethylamino)ethyl}-1-phenyl-1,3-dihydro-5-isobenzofurancarbonitrile hydrochloride] | 4/9 | 1345 ± 510
